Data published in patent US7074743B1, “Herbicidal composition comprising 4-iodo-2-[3-(4-methoxy-6-methyl-1,3,5-triazin-2-yl)ureidosulfonyl]benzoic esters” (priority 1995, dated 2006).

Columns and labels:
Type in all cases: in vivo
Triticum aestivum = experiment: Damage to crop plant TRZAW, visual scoring vs untreated
Method: (§1) The examples given below were performed in the greenhouse and, in some cases, in field trials.
(§2) The herbicides, or combinations, were applied in cereals after the weeds had emerged naturally using plot sprayers. After application, the results, such as damage to the crop plants and effect on broad-leaved weeds/grass weeds were assessed by means of visual scoring. The herbicidal action was assessed qualitatively and quantitatively by comparing untreated and treated plots on the basis of the effect on plant growth and the development of chloroses and necroses down to the complete destruction of the weeds (0–100%). The application was effected when the crop plants and weeds were in the 2–4 leaf stage. The test was evaluated approximately 4 weeks after application.
(§3) In the greenhouse experiments, the crop plants and broadleaved weeds/grass weeds were grown in No. 13 pots and treated in the 2–4 leaf stage. The pots were subsequently placed in the greenhouse under good growth conditions (temperature, atmospheric humidity, water supply).
(§4) The assessments were carried out similarly to those in the field trials, i.e. visual scoring of the treated plants in comparison with untreated control variants. These assessments were carried out 3 weeks after applying the test preparations and their combinations. The experiments had been set up in two replications.

Fallopia convolvulus = experiment: Herbicidal action on FALCO, visual scoring vs untreated, post-emergence 2-4 leaf stage; settings: Table 5
Method: as §1, §2, §3, §4
(§5) To assess the combination effects, the activities of the individual components were added and compared with the activity of the mixtures in equal doses. It was frequently observed that the efficacies of the combinations exceeded the total of the individual activities.
(§6) In cases with less clear effects, the expected value was calculated using Colby's formula and compared with the empirically determined result. The calculated efficacy of a combination which is expected in theory is determined is using S.R. Colby's formula: “Calculation of synergistic and antagonistic responses of herbicide combinations”, Weeds 15 (1967), pages 20 to 22.
(§7) [formula] where • X=% damage caused by herbicide A at a rate of ×kg a.i./ha; • Y=% damage caused by herbicide B at a rate of y kg a.i./ha; • Z=% damage caused by a further herbicide C at a rate of z kg a.i./ha; • E=expected value, i.e. expected damage caused by herbicides A+B (or A+B+C) at x+y (or x+y+z) kg a.i./ha.
(§8) Synergistic effects were assumed to be when the empirical value exceeded the expected value. In the case of combinations with individual components with the same active substances, comparisons via the total formula were also possible.

Centaurea cyanus = experiment: Herbicidal action on CENCY, visual scoring vs untreated, post-emergence 2-4 leaf stage; settings: Table 9
Method: as §1, §2, §3, §4, §5, §6, §7, §8

Phalaris canariensis = experiment: Herbicidal action on PHACA, visual scoring vs untreated, post-emergence 2-4 leaf stage (greenhouse / field trials); settings: Table 3
Method: as §1, §2, §3, §4, §5, §6, §7, §8

Lolium multiflorum = experiment: Herbicidal action on LOLMU, visual scoring vs untreated, post-emergence 2-4 leaf stage; settings: Table 3
Method: as §1, §2, §3, §4, §5, §6, §7, §8

Ambrosia elatior = experiment: Herbicidal action on AMBEL, visual scoring vs untreated, post-emergence 2-4 leaf stage; settings: Table 12; 4.5 g of ai/ha
Method: as §1, §2
(§9) In the greenhouse experiments, the crop plants and broadleaved weeds/grass weeds were grown in No. 13 pots and treated in the 2–4 leaf stage. […]
(§10) In cases with less clear effects, the expected value was calculated using Colby's formula and compared with the empirically determined result. The calculated efficacy of a combination which is expected in theory is determined is using S.R. Colby's formula: “Calculation of synergistic and antagonistic responses of herbicide combinations”, Weeds 15 (1967), pages 20 to 22. […]

Zea mays = experiment: Damage to crop plant ZEAMA, visual scoring vs untreated
Method: as §1, §2, §3, §4

Abuthilon theophrastis = experiment: Herbicidal action on ABUTHE, visual scoring vs untreated, post-emergence 2-4 leaf stage; settings: Table 12; 4.5 g of ai/ha
Method: as §1, §2, §9, §10

Gallium aparine = experiment: Herbicidal action on GALAP, visual scoring vs untreated, post-emergence 2-4 leaf stage; settings: Table 7
Method: as §1, §2, §3, §4, §5, §6, §7, §8

Viola arvensis = experiment: Herbicidal action on VIOAR, visual scoring vs untreated, post-emergence 2-4 leaf stage; settings: Table 7
Method: as §1, §2, §3, §4, §5, §6, §7, §8

Echinochloa crus galli = experiment: Herbicidal action on ECHCR, visual scoring vs untreated, post-emergence 2-4 leaf stage; settings: Table 4
Method: as §1, §2, §3, §4, §5, §6, §7, §8

Cc1cc(Cl)ccc1OCC(=O)O [B17), (4-chloro-2-methylphenoxy) acetic acid]
TRZAW % damage (Triticum aestivum; Table 5, 250 g of a.i./ha): 0%
FALCO % control (Fallopia convolvulus; 250 g of a.i./ha): 0%
FALCO % control (Fallopia convolvulus; 500 g of a.i./ha): 68%
FALCO % control (Fallopia convolvulus; 1000 g of a.i./ha): 75%

COC(=O)c1ccccc1S(=O)(=O)NC(=O)Nc1nc(C)nc(OC)n1 [B41), metsulfuron-methyl]
TRZAW % damage (Triticum aestivum; Triticum aestivum, in vivo): 0%
TRZAW % damage (Triticum aestivum; in vivo): 0%
CENCY % control (Centaurea cyanus; 1 g of a.i./ha): 0%
CENCY % control (Centaurea cyanus; 3 g of a.i./ha): 0%
CENCY % control (Centaurea cyanus; 5 g of a.i./ha): 0%
CENCY % control (Centaurea cyanus; 10 g of a.i./ha): 0%

CC(C)c1ccc(NC(=O)N(C)C)cc1 [B2), 3-(4-isopropylphenyl)-1,1-dimethylurea]
PHACA % control (Phalaris canariensis; 375 g of a.i./ha): 0%
PHACA % control (Phalaris canariensis; 750 g of a.i./ha): 0%
PHACA % control (Phalaris canariensis; 1500 g of a.i./ha): 50%
TRZAW % damage (Triticum aestivum; in vivo): 0%
LOLMU % control (Lolium multiflorum; 375 g of a.i./ha): 0%
LOLMU % control (Lolium multiflorum; 750 g of a.i./ha): 0%
LOLMU % control (Lolium multiflorum; 1500 g of a.i./ha): 0%

Nc1c(Cl)c(F)nc(OCC(=O)O)c1Cl [B21), 4-amino-3,5-dichloro-6-fluoro-2-pyridyloxyacetic acid]
FALCO % control (Fallopia convolvulus; 50 g of a.i./ha): 73%
FALCO % control (Fallopia convolvulus; 100 g of a.i./ha): 80%
FALCO % control (Fallopia convolvulus; 200 g of a.i./ha): 95%

CCOC(=O)C(Cl)Cc1cc(-n2nc(C)n(C(F)F)c2=O)c(F)cc1Cl (stereo not drawn) [B31), carfentrazone-ethyl]
AMBEL % control (Ambrosia elatior): 0%
ZEAMA % damage (Zea mays; Table 12, 4.5 g of ai/ha): 5%
ABUTHE % control (Abuthilon theophrastis): 60%

O=C(Nc1ccc(F)cc1F)c1cccnc1Oc1cccc(C(F)(F)F)c1 [B32), 2′ 4′-difluoro-2-(α,α,α-trifluoro-m-tolyloxy)nicotinanilide]
TRZAW % damage (Triticum aestivum; Table 7, 13 g of a.i./ha): 0%
TRZAW % damage (Triticum aestivum; Table 7, 25 g of a.i./ha): 0%
TRZAW % damage (Triticum aestivum; Table 7, 50 g of a.i./ha): 0%
TRZAW % damage (Triticum aestivum; Table 7, 100 g of a.i./ha): 0%
GALAP % control (Gallium aparine; 13 g of a.i./ha): 0%
GALAP % control (Gallium aparine; 25 g of a.i./ha): 0%
GALAP % control (Gallium aparine; 50 g of a.i./ha): 5%
GALAP % control (Gallium aparine; 100 g of a.i./ha): 5%

CCOC(=O)COC(=O)c1cc(Oc2ccc(C(F)(F)F)cc2Cl)ccc1[N+](=O)[O-] [B25), fluoroglycofen-ethyl]
VIOAR % control (Viola arvensis; 4 g of a.i./ha): 3%
VIOAR % control (Viola arvensis; 8 g of a.i./ha): 18%
VIOAR % control (Viola arvensis; 15 g of a.i./ha): 38%
VIOAR % control (Viola arvensis; 30 g of a.i./ha): 62%
TRZAW % damage (Triticum aestivum; in vivo): 0%

imazamethabenz-methyl [B8)]
PHACA % control (Phalaris canariensis; 375 g of a.i./ha): 0%
PHACA % control (Phalaris canariensis; 750 g of a.i./ha): 0%
PHACA % control (Phalaris canariensis; 1500 g of a.i./ha): 13%
LOLMU % control (Lolium multiflorum; 375 g of a.i./ha): 0%
LOLMU % control (Lolium multiflorum; 750 g of a.i./ha): 0%
LOLMU % control (Lolium multiflorum; 1500 g of a.i./ha): 20%

COc1cc(OC)nc(NC(=O)NS(=O)(=O)c2ncccc2C(=O)N(C)C)n1 [B13), 1-(4,6-dimethoxypyrimidin-2-yl)-3-(3-dimethylcarbamoyl-2-pyridylsulfonyl)urea]
ECHCR % control (Echinochloa crus galli; 15 g of a.i./ha): 0%
ECHCR % control (Echinochloa crus galli; 30 g of a.i./ha): 73%
ECHCR % control (Echinochloa crus galli; 60 g of a.i./ha): 75%
ZEAMA % damage (Zea mays; Table 4, 15 g of a.i./ha): 0%
ZEAMA % damage (Zea mays; Table 4, 30 g of a.i./ha): 0%
ZEAMA % damage (Zea mays; Table 4, 60 g of a.i./ha): 2%
